Experimental data from ChEMBL document CHEMBL5046297, “Discovery of a Colon-Targeted Azo Prodrug of Tofacitinib through the Establishment of Colon-Specific Delivery Systems Constructed by 5-ASA-PABA-MAC and 5-ASA-PABA-Diamine for the Treatment of Ulcerative Colitis” (J Med Chem, 2022).
One block for each compound: values may come before it. The source made the active and inactive calls. No cut-off for these calls is given here.

Legend:
[1] = Prodrug conversion in BALB/c mouse ileum assessed as tofacitinib AUC(0 to 12 hrs) at 15 mg/kg, po measured upto 12 hrs by LC-MS/MS analysis; format: ADME, organism-based; set-up: route oral, dose 15 mg/kg, time <=12; settings: in vivo
[2] = Prodrug conversion in BALB/c mouse colon assessed as tofacitinib AUC(0 to 12 hrs) at 15 mg/kg, po measured upto 12 hrs by LC-MS/MS analysis; format: ADME, organism-based; set-up: route oral, dose 15 mg/kg, time <=12; settings: in vivo
[3] = Prodrug conversion in Sprague-Dawley rat assessed as elimination half life of tofacitinib at 15 mg/kg, po measured up to 12 hrs by LC-MS/MS analysis; format: ADME, organism-based; settings: in vivo
[4] = Prodrug conversion in Sprague-Dawley rat assessed as Cmax of tofacitinib at 15 mg/kg, po measured up to 12 hrs by LC-MS/MS analysis; format: ADME, organism-based; set-up: route oral, dose 15 mg/kg, time <=12; settings: in vivo
[5] = Prodrug conversion in Sprague-Dawley rat assessed as AUC (0 to infinity) of tofacitinib at 15 mg/kg, po measured up to 12 hrs by LC-MS/MS analysis; format: ADME, organism-based; set-up: route oral, dose 15 mg/kg, time <=12; settings: in vivo
[6] = Prodrug conversion in BALB/c mouse duodenum assessed as tofacitinib AUC(0 to 12 hrs) at 15 mg/kg, po measured upto 12 hrs by LC-MS/MS analysis; format: ADME, organism-based; set-up: route oral, dose 15 mg/kg, time <=12; settings: in vivo
[7] = Prodrug conversion in Sprague-Dawley rat assessed as Tmax of tofacitinib at 15 mg/kg, po measured up to 12 hrs by LC-MS/MS analysis; format: ADME, organism-based; settings: in vivo
[8] = Prodrug conversion in BALB/c mouse jejunum assessed as tofacitinib AUC(0 to 12 hrs) at 15 mg/kg, po measured upto 12 hrs by LC-MS/MS analysis; format: ADME, organism-based; set-up: route oral, dose 15 mg/kg, time <=12; settings: in vivo
[9] = Prodrug conversion in BALB/c mouse plasma assessed as tofacitinib AUC(0 to 12 hrs) at 15 mg/kg, po measured upto 12 hrs by LC-MS/MS analysis; format: ADME, organism-based; set-up: route oral, dose 15 mg/kg, time <=12; settings: in vivo
Mus musculus [10] = experiment: Anti-ulcerative colitis activity against oxazolone induced ulcerative colitis BALB/c mouse model assessed as improved stool consistency at 1.5 mg/kg, po bid measured after 36 hrs; format: functional, organism-based
[11] = Prodrug conversion in BALB/c mouse ileum assessed as tofacitinib AUC(0 to 12 hrs) at 22.5 mg/kg, po measured upto 12 hrs by LC-MS/MS analysis; format: ADME, organism-based; set-up: route oral, dose 22.5 mg/kg, time <=12; settings: in vivo
[12] = Acute toxicity in Kunming mouse assessed as change in ALT level in liver at 2000 mg/kg, po measured for 7 days; format: organism-based; settings: in vivo, 168 h, time 7 day
Mus musculus [13] = experiment: Anti-ulcerative colitis activity against BALB/c oxazolone-induced ulcerative colitis mouse model assessed as prevention of oxazolone-induced leukocyte infiltration at 1.5 mg/kg, po by H and E staining based histopathological analysis; format: functional, organism-based
[14] = Acute toxicity in Kunming mouse assessed as change in urea level in kidney at 2000 mg/kg, po measured for 7 days; format: organism-based; settings: in vivo, 168 h, time 7 day
[15] = Acute toxicity in Kunming mouse assessed as change in AST level in liver at 2000 mg/kg, po measured for 7 days; format: organism-based; settings: in vivo, 168 h, time 7 day
[16] = Prodrug conversion in Sprague-Dawley rat assessed as elimination half life of tofacitinib at 22.5 mg/kg, po measured up to 20 hrs by LC-MS/MS analysis; format: ADME, organism-based; settings: in vivo
[17] = Prodrug conversion in Sprague-Dawley rat colon content suspension assessed as tofacitinib release measured upto 8 hrs by HPLC analysis; format: ADME, tissue-based
Mus musculus [18] = experiment: Anti-ulcerative colitis activity against oxazolone induced ulcerative colitis Balb/c mouse model assessed as prevention of body weight loss at 1.5 mg/kg, po bid incubated for 24 hrs; format: functional, organism-based
[19] = Toxicity in Kunming mouse assessed as change in liver index at 2000 mg/kg, po measured for 7 days; format: organism-based; settings: in vivo, 168 h, time 7 day
[20] = Chemical stability in simulated intestinal fluid assessed as parent compound remaining incubated for 12 hrs by LC-MS/MS analysis; format: ADME, physicochemical; settings: simulated gi fluid
[21] = Prodrug conversion in BALB/c mouse duodenum assessed as tofacitinib AUC(0 to 12 hrs) at 22.5 mg/kg, po measured upto 12 hrs by LC-MS/MS analysis; format: ADME, organism-based; set-up: route oral, dose 22.5 mg/kg, time <=12; settings: in vivo
[22] = Prodrug conversion in BALB/c mouse plasma assessed as tofacitinib AUC(0 to 12 hrs) at 22.5 mg/kg, po measured upto 12 hrs by LC-MS/MS analysis; format: ADME, organism-based; set-up: route oral, dose 22.5 mg/kg, time <=12; settings: in vivo
[23] = Prodrug conversion in Sprague-Dawley rat assessed as Tmax of tofacitinib at 22.5 mg/kg, po measured up to 20 hrs by LC-MS/MS analysis; format: ADME, organism-based; settings: in vivo
Mus musculus [24] = experiment: Anti-ulcerative colitis activity against oxazolone-induced ulcerative colitis BALB/c mouse model assessed as improvement in spleen index at 1.5 mg/kg, po bid measured after 4 days; format: functional, organism-based; settings: time 4.0 day
Mus musculus [25] = experiment: Anti-ulcerative colitis activity against oxazolone induced ulcerative colitis Balb/c mouse model assessed as prevention of body weight loss at 1.5 mg/kg, po bid measured after 36 hrs; format: functional, organism-based
Mus musculus [26] = experiment: Anti-ulcerative colitis activity against oxazolone induced ulcerative colitis BALB/c mouse model assessed as improved stool blood at 1.5 mg/kg, po bid measured after 36 hrs; format: functional, organism-based
[27] = Prodrug conversion in Sprague-Dawley rat assessed as Cmax of tofacitinib at 22.5 mg/kg, po measured up to 20 hrs by LC-MS/MS analysis; format: ADME, organism-based; set-up: route oral, dose 22.5 mg/kg, time <=20; settings: in vivo
Mus musculus [28] = experiment: Anti-ulcerative colitis activity against BALB/c oxazolone-induced ulcerative colitis mouse model assessed as preserved intestinal mucosal epithelial integrity at 1.5 mg/kg, po by H and E staining based histopathological analysis; format: functional, organism-based
[29] = Ratio of prodrug conversion in BALB/c mouse intestine assessed as tofacitinib AUC(0 to 12 hrs) at 22.5 mg/kg, po to prodrug conversion in BALB/c mouse jejunum assessed as tofacitinib AUC(0 to 12 hrs) at 22.5 mg/kg, po; format: ADME, organism-based; settings: in vivo
Mus musculus [30] = experiment: Immunosuppressive activity in BALB/c mouse assessed as reduction in spleen index at 1.5 mg/kg, ig bid measured after 4 days by flow cytometry analysis; format: functional, organism-based; settings: time 4.0 day
[31] = Prodrug conversion in BALB/c mouse colon assessed as tofacitinib AUC(0 to 12 hrs) at 22.5 mg/kg, po measured upto 12 hrs by LC-MS/MS analysis; format: ADME, organism-based; set-up: route oral, dose 22.5 mg/kg, time <=12; settings: in vivo
[32] = Toxicity in Kunming mouse assessed as change in spleen index at 2000 mg/kg, po measured for 7 days; format: organism-based; settings: in vivo, 168 h, time 7 day
[33] = Ratio of prodrug conversion in BALB/c mouse intestine assessed as tofacitinib AUC(0 to 12 hrs) at 22.5 mg/kg, po to prodrug conversion in BALB/c mouse colon assessed as tofacitinib AUC(0 to 12 hrs) at 22.5 mg/kg, po; format: ADME, organism-based; settings: in vivo
[34] = Chemical stability of compound in pH 4.5 PBS buffer at 100 uM incubated for 24 hrs by HPLC analysis; format: physicochemical; settings: pH 4.5, 24 h
[35] = Chemical stability of compound in pH 7.4 PBS buffer at 100 uM incubated for 24 hrs by HPLC analysis; format: physicochemical; settings: pH 7.4, 24 h
[36] = Ratio of prodrug conversion in BALB/c mouse intestine assessed as tofacitinib AUC(0 to 12 hrs) at 22.5 mg/kg, po to prodrug conversion in BALB/c mouse duodenum assessed as tofacitinib AUC(0 to 12 hrs) at 22.5 mg/kg, po; format: ADME, organism-based; settings: in vivo
Mus musculus [37] = experiment: Anti-ulcerative colitis activity against BALB/c oxazolone-induced ulcerative colitis mouse model assessed as prevention of oxazolone-induced increase in shortening of colon length at 1.5 mg/kg, po bid measured after 4 days; format: functional, organism-based; settings: time 4.0 day
[38] = Ratio of prodrug conversion in BALB/c mouse intestine assessed as tofacitinib AUC(0 to 12 hrs) at 22.5 mg/kg, po to prodrug conversion in BALB/c mouse ileum assessed as tofacitinib AUC(0 to 12 hrs) at 22.5 mg/kg, po; format: ADME, organism-based; settings: in vivo
[39] = Acute toxicity in Kunming mouse model assessed as increase in body weight at 2000 mg/kg, po measured for 7 days; format: organism-based; settings: in vivo, 168 h, time 7 day
Mus musculus [40] = experiment: Immunosuppressive activity in BALB/c mouse assessed as reduction in CD49+ NK cell count at 1.5 mg/kg, ig bid measured after 4 days by flow cytometry analysis; format: functional, organism-based; settings: time 4.0 day
[41] = Acute toxicity in Kunming mouse assessed as change in creatine level in kidney at 2000 mg/kg, po measured for 7 days; format: organism-based; settings: in vivo, 168 h, time 7 day
[42] = Toxicity in Kunming mouse assessed as change in kidney index at 2000 mg/kg, po measured for 7 days; format: organism-based; settings: in vivo, 168 h, time 7 day
[43] = Chemical stability of compound in pH 1.2 HCl buffer at 100 uM incubated for 24 hrs by HPLC analysis; format: physicochemical; settings: pH 1.2, 24 h
Mus musculus [44] = experiment: Anti-ulcerative colitis activity against BALB/c mouse model of oxazolone-induced ulcerative colitis assessed as prevention of oxazolone-induced increase in colon density at 1.5 mg/kg, po bid measured after 4 days; format: functional, organism-based; settings: time 4.0 day
[45] = Acute toxicity in Kunming mouse assessed as animal death at 2000 mg/kg, po measured for 7 days; format: organism-based; settings: in vivo, 168 h, time 7 day
Mus musculus [46] = experiment: Anti-ulcerative colitis activity against BALB/c oxazolone-induced ulcerative colitis mouse model assessed as prevention of oxazolone-induced edema at 1.5 mg/kg, po by H and E staining based histopathological analysis; format: functional, organism-based
Mus musculus [47] = experiment: Anti-ulcerative colitis activity against BALB/c oxazolone-induced ulcerative colitis mouse model assessed as prevention of oxazolone-induced increase in colon weight at 1.5 mg/kg, po bid measured after 4 days; format: functional, organism-based; settings: time 4.0 day
[48] = Prodrug conversion in BALB/c mouse jejunum assessed as tofacitinib AUC(0 to 12 hrs) at 22.5 mg/kg, po measured upto 12 hrs by LC-MS/MS analysis; format: ADME, organism-based; set-up: route oral, dose 22.5 mg/kg, time <=12; settings: in vivo
[49] = Prodrug conversion in Sprague-Dawley rat assessed as AUC (0 to infinity) of tofacitinib at 22.5 mg/kg, po measured up to 20 hrs by LC-MS/MS analysis; format: ADME, organism-based; set-up: route oral, dose 22.5 mg/kg, time <=20; settings: in vivo
[50] = Prodrug conversion in Sprague-Dawley rat assessed as tofacitinib release at 22.5 mg/kg, po measured after 1 hr by HPLC analysis; format: ADME, organism-based; settings: in vivo
[51] = Chemical stability in simulated gastric fluid assessed as parent compound remaining incubated for 12 hrs by LC-MS/MS analysis; format: ADME, physicochemical; settings: simulated gi fluid

AUC [1]: 50.3 µM·h
AUC [2]: 167 µM·h
beta t1/2 [3]: 3.94 h
Cmax [4]: 54.9 µM
AUC [5]: 70.66 µM·h
AUC [6]: 67 µM·h
Tmax [7]: 0.42 h
AUC [8]: 43 µM·h
AUC [9]: 7.1 µM·h
SMILES: C[C@@H]1CCN(C(=O)CC#N)C[C@@H]1N(C)c1ncnc2[nH]ccc12.O=C(O)CC(O)(CC(=O)O)C(=O)O [TOFACITINIB CITRATE]

SMILES: C[C@@H]1CCN(C(=O)CC#N)C[C@@H]1N(C)c1ncnc2c1ccn2C(=O)N(C)CCN(C)C(=O)OCc1ccc(/N=N/c2ccc(O)c(C(=O)O)c2)cc1Cl
Activity (Mus musculus [10]): Active
AUC [11]: 357 µM·h
Activity [12]: Non-Toxic
Activity (Mus musculus [13]): Active
Activity [14]: Non-Toxic
Activity [15]: Non-Toxic
beta t1/2 [16]: 3.09 h
Drug metabolism [17]: 3.22 mmol/L/h
Activity (Mus musculus [18]): Active
Activity [19]: Non-Toxic
Stability [20]: Stable
AUC [21]: 99 µM·h
AUC [22]: 4.5 µM·h
Tmax [23]: 8 h
Activity (Mus musculus [24]): Active
Activity (Mus musculus [25]): Active
Activity (Mus musculus [26]): Active
Cmax [27]: 2.49 µM
Activity (Mus musculus [28]): Active
Ratio AUC [29]: 4.49
Activity (Mus musculus [30]): inactive
AUC [31]: 1600 µM·h
Activity [32]: Non-Toxic
Ratio AUC [33]: 9.61
Stability [34]: Stable
Stability [35]: Stable
Ratio AUC [36]: 1.48
Activity (Mus musculus [37]): Active
Ratio AUC [38]: 7.1
Activity [39]: Non-Toxic
Activity (Mus musculus [40]): inactive
Activity [41]: Non-Toxic
Activity [42]: Non-Toxic
Stability [43]: Stable
Activity (Mus musculus [44]): Active
Activity [45]: Non-Toxic
Activity (Mus musculus [46]): Active
Activity (Mus musculus [47]): Active
AUC [48]: 193 µM·h
AUC [49]: 19.27 µM·h
Drug metabolism [50]: Metabolite_Detected
Stability [51]: Stable
